From US8658604B2, “Template-fixed beta-hairpin peptidomimetics with protease inhibitory activity” (Polyphor Ltd, priority 2005, dated 2014)
Where a SMILES comes first, the peptide text is derived from it.

These compounds were tested against T1, Elastase from human neutrophils (Homo sapiens, UniProt P08246) (assay: Enzymatic assay, elastase). Conditions: Elastase IC50.
T1 sequence (P08246 30-267): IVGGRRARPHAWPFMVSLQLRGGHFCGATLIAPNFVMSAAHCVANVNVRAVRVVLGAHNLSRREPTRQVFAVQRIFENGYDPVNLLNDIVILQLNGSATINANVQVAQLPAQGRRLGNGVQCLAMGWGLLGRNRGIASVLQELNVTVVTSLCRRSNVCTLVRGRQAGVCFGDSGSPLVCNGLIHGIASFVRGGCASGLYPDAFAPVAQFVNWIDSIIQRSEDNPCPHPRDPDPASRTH

SMILES	IC50 [nM]
CCCC[C@@H]1NC(=O)[C@@H]2CCCN2C(=O)[C@@H](C(C)C)NC(=O)[C@H](Cc2ccc(O)cc2)NC(=O)[C@@H]2CSSC[C@H](NC1=O)C(=O)N[C@@H]([C@@H](C)O)C(=O)N[C@@H](C)C(=O)N[C@@H](CO)C(=O)N[C@@H]([C@@H](C)CC)C(=O)N1CCC[C@H]1C(=O)N1CCC[C@H]1C(=O)N[C@@H](CCC(N)=O)C(=O)N2 [Ex. 119] (HELM PEPTIDE1{A.S.I.P.P.Q.C.Y.[dV].P.[Nle].C.T}$PEPTIDE1,PEPTIDE1,7:R3-12:R3|PEPTIDE1,PEPTIDE1,1:R1-13:R2$$$V2.0)	45
CCCC[C@@H]1NC(=O)[C@H]([C@@H](C)O)NC(=O)[C@@H]([C@H](C)O)NC(=O)[C@H](Cc2ccc(O)cc2)NC(=O)[C@@H]2CSSC[C@H](NC1=O)C(=O)N[C@@H]([C@@H](C)O)C(=O)N[C@@H](C)C(=O)N[C@@H](CO)C(=O)N[C@@H]([C@@H](C)CC)C(=O)N1CCC[C@H]1C(=O)N1CCC[C@H]1C(=O)N[C@@H](CCC(N)=O)C(=O)N2 [Ex. 126] (HELM PEPTIDE1{A.S.I.P.P.Q.C.Y.[dT].T.[Nle].C.T}$PEPTIDE1,PEPTIDE1,7:R3-12:R3|PEPTIDE1,PEPTIDE1,1:R1-13:R2$$$V2.0)	36
CCCC[C@@H]1NC(=O)[C@H]([C@@H](C)O)NC(=O)[C@@H](Cc2ccccc2)NC(=O)[C@H](Cc2ccc(O)cc2)NC(=O)[C@@H]2CSSC[C@H](NC1=O)C(=O)N[C@@H]([C@@H](C)O)C(=O)N[C@@H](C)C(=O)N[C@@H](CO)C(=O)N[C@@H]([C@@H](C)CC)C(=O)N1CCC[C@H]1C(=O)N1CCC[C@H]1C(=O)N[C@@H](CCC(N)=O)C(=O)N2 [Ex. 128] (HELM PEPTIDE1{A.S.I.P.P.Q.C.Y.[dF].T.[Nle].C.T}$PEPTIDE1,PEPTIDE1,7:R3-12:R3|PEPTIDE1,PEPTIDE1,1:R1-13:R2$$$V2.0)	40
CCCCCCCC[C@@H]1NC(=O)[C@H](CO)NC(=O)[C@H](C)NC(=O)[C@H]([C@@H](C)O)NC(=O)[C@@H]2CSSC[C@H](NC(=O)[C@H](CCC(N)=O)NC(=O)[C@@H]3CCCN3C(=O)[C@@H]3CCCN3C1=O)C(=O)N[C@@H](CCC(N)=O)C(=O)N1CCC[C@@H]1C(=O)N1CCC[C@H]1C(=O)N[C@@H](CCCC)C(=O)N2 [Ex. 129] (HELM PEPTIDE1{[Nle].C.T.A.S.[CCCCCCCC[C@H](N[*:1])C(=O)[*:2]].P.P.Q.C.Q.[dP].P}$PEPTIDE1,PEPTIDE1,2:R3-10:R3|PEPTIDE1,PEPTIDE1,1:R1-13:R2$$$V2.0)	30
CC[C@H](C)[C@@H]1NC(=O)[C@H](CO)NC(=O)[C@H](C)NC(=O)[C@H]([C@@H](C)O)NC(=O)[C@H](CCC(=O)O)NC(=O)[C@H](CCc2ccccc2)NC(=O)[C@@H]2CCCN2C(=O)[C@H]2CCCN2C(=O)[C@H](Cc2ccc(O)cc2)NC(=O)[C@H](CCCCN)NC(=O)[C@H](CCC(N)=O)NC(=O)[C@@H]2CCCN2C(=O)[C@@H]2CCCN2C1=O [Ex. 132] (HELM PEPTIDE1{[O=C([C@H](CCc1ccccc1)N[*:1])[*:2]].E.T.A.S.I.P.P.Q.K.Y.[dP].P}$PEPTIDE1,PEPTIDE1,1:R1-13:R2$$$V2.0)	26
CC[C@H](C)[C@@H]1NC(=O)[C@H](CO)NC(=O)[C@H](C)NC(=O)[C@H]([C@@H](C)O)NC(=O)[C@H]([C@@H](C)O)NC(=O)[C@H](CCc2ccccc2)NC(=O)[C@@H]2CCCN2C(=O)[C@H]2CCCN2C(=O)[C@H](Cc2ccc(O)cc2)NC(=O)[C@H](CCC(N)=O)NC(=O)[C@H](CCC(N)=O)NC(=O)[C@@H]2CCCN2C(=O)[C@@H]2CCCN2C1=O [Ex. 134] (HELM PEPTIDE1{[O=C([C@H](CCc1ccccc1)N[*:1])[*:2]].T.T.A.S.I.P.P.Q.Q.Y.[dP].P}$PEPTIDE1,PEPTIDE1,1:R1-13:R2$$$V2.0)	23
CCCCCCCC[C@@H]1NC(=O)[C@H](CO)NC(=O)[C@H](C)NC(=O)[C@H]([C@@H](C)O)NC(=O)[C@H]([C@@H](C)O)NC(=O)[C@H](CCCC)NC(=O)[C@@H]2CCCN2C(=O)[C@H]2CCCN2C(=O)[C@H](Cc2ccc(O)cc2)NC(=O)[C@H](CCC(N)=O)NC(=O)[C@H](CCC(N)=O)NC(=O)[C@@H]2CCCN2C(=O)[C@@H]2CCCN2C1=O [Ex. 135] (HELM PEPTIDE1{[Nle].T.T.A.S.[CCCCCCCC[C@H](N[*:1])C(=O)[*:2]].P.P.Q.Q.Y.[dP].P}$PEPTIDE1,PEPTIDE1,1:R1-13:R2$$$V2.0)	23
CCCC[C@@H]1NC(=O)[C@@H]2CCCN2C(=O)[C@H]2CCCN2C(=O)[C@H](Cc2ccc(O)cc2)NC(=O)[C@H](CCC(N)=O)NC(=O)[C@H](CCC(N)=O)NC(=O)[C@@H]2CCCN2C(=O)[C@@H]2CCCN2C(=O)[C@H](CC2CCCCC2)NC(=O)[C@H](CO)NC(=O)[C@H](C)NC(=O)[C@H]([C@@H](C)O)NC(=O)[C@H]([C@@H](C)O)NC1=O [Ex. 139] (HELM PEPTIDE1{[Nle].T.T.A.S.[Cha].P.P.Q.Q.Y.[dP].P}$PEPTIDE1,PEPTIDE1,1:R1-13:R2$$$V2.0)	18
CC[C@H](C)[C@@H]1NC(=O)[C@H](CO)NC(=O)[C@H](C)NC(=O)[C@H]([C@@H](C)O)NC(=O)[C@H](CCC(N)=O)NC(=O)[C@H](CCc2ccccc2)NC(=O)[C@@H]2CCCN2C(=O)[C@H]2CCCN2C(=O)[C@H](Cc2ccc(O)cc2)NC(=O)[C@H]([C@@H](C)O)NC(=O)[C@H](CCC(N)=O)NC(=O)[C@@H]2CCCN2C(=O)[C@@H]2CCCN2C1=O [Ex. 142] (HELM PEPTIDE1{[O=C([C@H](CCc1ccccc1)N[*:1])[*:2]].Q.T.A.S.I.P.P.Q.T.Y.[dP].P}$PEPTIDE1,PEPTIDE1,1:R1-13:R2$$$V2.0)	16
CCCCCCCC[C@@H]1NC(=O)[C@@H]2CCCN2C(=O)[C@H]2CCCN2C(=O)[C@H](Cc2ccccc2)NC(=O)[C@@H]2CSSC[C@H](NC1=O)C(=O)N[C@@H]([C@@H](C)O)C(=O)N[C@@H](C)C(=O)N[C@@H](CO)C(=O)N[C@@H]([C@@H](C)CC)C(=O)N1CCC[C@H]1C(=O)N1CCC[C@H]1C(=O)N[C@@H](CCC(N)=O)C(=O)N2 [Ex. 145] (HELM PEPTIDE1{[CCCCCCCC[C@H](N[*:1])C(=O)[*:2]].C.T.A.S.I.P.P.Q.C.F.[dP].P}$PEPTIDE1,PEPTIDE1,2:R3-10:R3|PEPTIDE1,PEPTIDE1,1:R1-13:R2$$$V2.0)	14
CCCCCCCC[C@@H]1NC(=O)[C@@H]2CCCN2C(=O)[C@H]2CCCN2C(=O)[C@H](Cc2ccc(O)cc2)NC(=O)[C@H](CCC(N)=O)NC(=O)[C@H](CCC(N)=O)NC(=O)[C@@H]2CCCN2C(=O)[C@@H]2CCCN2C(=O)[C@H]([C@@H](C)CC)NC(=O)[C@H](CO)NC(=O)[C@H](C)NC(=O)[C@H]([C@@H](C)O)NC(=O)[C@H]([C@@H](C)O)NC1=O [Ex. 147] (HELM PEPTIDE1{[CCCCCCCC[C@H](N[*:1])C(=O)[*:2]].T.T.A.S.I.P.P.Q.Q.Y.[dP].P}$PEPTIDE1,PEPTIDE1,1:R1-13:R2$$$V2.0)	11
CCCCCCCC[C@@H]1NC(=O)[C@@H]2CCCN2C(=O)[C@H]2CCCN2C(=O)[C@H](CCC(N)=O)NC(=O)[C@@H]2CSSC[C@H](NC1=O)C(=O)N[C@@H]([C@@H](C)O)C(=O)N[C@@H](C)C(=O)N[C@@H](CO)C(=O)N[C@@H]([C@@H](C)CC)C(=O)N1CCC[C@H]1C(=O)N1CCC[C@H]1C(=O)N[C@@H](CCC(N)=O)C(=O)N2 [Ex. 149] (HELM PEPTIDE1{[CCCCCCCC[C@H](N[*:1])C(=O)[*:2]].C.T.A.S.I.P.P.Q.C.Q.[dP].P}$PEPTIDE1,PEPTIDE1,2:R3-10:R3|PEPTIDE1,PEPTIDE1,1:R1-13:R2$$$V2.0)	11
